Data taken from patent US20100130457A1, “Phenothiazine Derivatives for Treatment of Asthma” (Immune Control, Inc., priority 2008, published 2010).
Entries after “also recorded” stand apart in the source; their conditions may differ.

System: human small airway
Experiment: Human precision-cut lung slices (PCLS), small airway contraction
Settings: for CCh-induced bronchoconstriction after pretreatment of lung slices: C-027 10^−5 M, formoterol 0.3 nM
Procedure: Human precision-cut lung slices (PCLS) permit evaluation of pharmacological responses of novel drug candidates applied directly to their target tissue.
Human precision-cut lung slices (PCLS, 250 μm thick) containing a small airway were contracted to carbachol, histamine and passively sensitization to induce airway closure±pre-incubation with ICI-735 (10 μM; 2 hours); FIG. 13. For example, human lung slices containing a small airway were incubated overnight with either negative control IgG (4 μg/mL) or positive control IgE (4 μg/mL). The slices were tested as follows: 1) IgG+anti-IgE; 2) IgE+anti-IgE; 3) IgE+Dexamethasone (1 μM)+anti-IgE; and 4) IgE+ICI-735 (10 μM) +anti-IgE. Dexamethasone and ICI-735 were pre-incubated 2 hours prior to anti-IgE; anti-IgE is used to crosslink antibodies and induce mast cell degranulation, which is believed to release histamine and cause airway contract. […]
Human lung tissue contains multiple cell types, including mast cells, that localize in the region of airway smooth muscle, and that increase in number in individuals with asthma. Cross-linking of Fcε;R1 receptors on surfaces of mast cells leads to release of granules that contain smooth muscle contractile agonists, including histamine and leukotrienes.
To test C-027 as a blocker of histamine-induced bronchoconstriction, lung slices were incubated for 2 hours with C-027, and small airway contraction was evaluated after addition of increasing concentrations of histamine.

NCC(=O)NCCN1CCN(CCCN2c3ccccc3Sc3ccc(C(F)(F)F)cc32)CC1 [ICI-735]
histamine response at the highest concentration tested (10 μM): does not completely prevent | histamine-induced contraction / bronchoconstriction (2 hours pre-incubation, increasing concentrations of histamine): antagonize; also recorded: blocks; also recorded: prevented | CCh-induced bronchoconstriction after pretreatment of lung slices: antagonize; also recorded: prevents and reverses bronchoconstriction | CCh-induced bronchoconstriction after pretreatment of lung slices (listed as C-027): blocks | airway contraction to IgE/anti-IgE (passive sensitization, mast cell degranulation) (ICI-735 10 μM, dexamethasone 1 μM, pre-incubated 2 hours): antagonize; also recorded: attenuation; also recorded: blocks bronchoconstriction | IL-13-induced airway hyper-responsiveness to CCh (IL-13 50 ng/mL overnight, compound one hour prior): diminishes | relaxation of maximally contracted airway smooth muscle (in the presence of 30 μM CCh, isoproterenol 10 μM): induces relaxation
